Reference: paper PMC3209502 (European journal of pharmacology, 2011)

Tests used:
Sprague Dawley Rats = experiment: Locomotor activity test; assay type: in vivo, rat; settings: 5 mg/kg i.p., measured 0.5 h from 1 h post injection, vs vehicle
male Sprague Dawley rats = experiment: Rat forced swimming test; assay type: in vivo; settings: 15 mg/kg i.p., 30 min pretreatment, vs vehicle
C57Bl/6 mice = experiment: Mouse tail suspension test; assay type: in vivo; settings: 15 mg/kg, 30 min before testing, vs vehicle

SMILES: Fc1ccc(C(OCCN2CCN(CCCc3ccccc3)CC2)c2ccc(F)cc2)cc1 [GBR 12909, 1-[2-[bis(4-fluorophenyl)methoxy]ethyl]-4-[3-phenylpropyl]piperazine]
- locomotor activity (horizontal activity, HACTV) (Sprague Dawley Rats): significant rise

SMILES: CN(C)CCCN1c2ccccc2CCc2ccccc21 [imipramine, Imipramine]
- duration of immobility in the forced swimming test (male Sprague Dawley rats): produced a reduction in immobility
- immobility of mice in the tail suspension test (C57Bl/6 mice): significantly different compared to vehicle
